This is an account of results in US20240398783A1, “Compounds and Pharmaceutical Compositions Comprising Inhibitors of Amyloid Peptide Interactions with Glycosaminoglycans, Methods of Treatment and Use Thereof” (Gismo Therapeutics, Inc., priority 2021, published 2024).

Where a name gives a salt, the structure may show the parent alone. Read-outs that look alike come from different tables or passages of the source.

Assay [1] deals with T1, SAA binding to heparin (HS-GAG) (Homo sapiens, UniProt P0DJI8).
T1 sequence (P0DJI8 19-122): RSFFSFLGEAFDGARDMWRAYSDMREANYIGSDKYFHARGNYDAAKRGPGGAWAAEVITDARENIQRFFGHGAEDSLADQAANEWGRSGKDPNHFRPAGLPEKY
In words: Inhibition of SAA binding to immobilized heparin-BSA (ELISA). More on the design: species or system porcine. The procedure:
(§1) Porcine intestinal mucosa heparin conjugated to Bovine Serum Albumin (Heparin-BSA) was prepared as described (Najjam, S. et al. 1997, Cytokine 12, 1013-1022). Heparin is a sulfated HS-GAG and is commonly used as a HS-GAG in biochemical and binding assays (Lindahl, U. and Kjellen, L. (2013) ibid). Heparin-BSA at 0.01 mg/ml in Phosphate Buffered Saline (PBS; pH 7.4) was added to a 96 well polystyrene ELISA plate (NUNC Cat. No. 449824; 100 μl per well) and incubated Over Night (ON) at 4 degrees Celsius. For negative controls, ELISA plates were coated with BSA instead of Heparin-BSA, using the same procedure. Following the incubation, the plate was washed consecutively, by immersion, with de-ionized water and PBS (pH 7.4). The ELISA plate was then blocked with nonfat milk (2%, 200 μl per well) for 2 hours at Room Temperature (RT) with gentle shaking. Following blocking, the plate was washed with de-ionized water then PBS (pH 7.4). GBAPs were dissolved and diluted in PBS (pH 6.5, supplemented with 0.1% BSA) at desired concentrations, added to the ELISA plates containing immobilized Heparin-BSA (100 μl per well) and incubated for 2 hours at RT with gentle shaking. Following incubation, the plate was washed with de-ionized water and three times with PBS (pH 6.5) plus Tween. Bound GBAP was detected by a monoclonal antibody specific for that GBAP, followed by incubation with secondary antibody conjugated to horseradish peroxidase (HRP). Antibody was diluted in PBS (pH 6.5 supplemented with 1% BSA). Following each incubation with antibody, the plate was washed with de-ionized water and three times with PBS (pH 6.5) wash buffer containing 0.1% Tween. The peroxidase substrate chromogen, TMB (Dako Cat. No. S1599) was added (100 μl per well) to the ELISA plate and incubated at room temperature. After 5 minutes ELISA Stop Solution (hydrochloric acid 1N, sulfuric acid 3N) was added (100 μl per well) to stop the peroxidase catalyzed colorimetric reaction. The Optical Density of the samples was measured at 450 nm using an ELISA plate reader (BioTek Synergy H1). Following color development, the % inhibition compared to control (BSA-coated plates) was determined. IC-50s were calculated using GraphPad Prism software.
The assay was performed as described in Example 43, with the following modifications. Following to coating the plates with Heparin-BSA, plates were washed as described. The compounds were dissolved in DMSO at 10 mM final concentration and further diluted prior to assay. DMSO concentration in the screening well was up to 2%. Individual compounds were co-incubated with SAA on plates containing immobilized heparin. Serum amyloid A (SAA) from PeProtech (NJ, USA, Cat. No. 300-53) was dissolved in DMSO, quickly frozen and kept in aliquots at −80 degrees Celsius. SAA dissolved in Tris buffer (pH 6.5, supplemented with BSA, 0.1%) was added to the ELISA plate (100 μl per well) and incubated for 2 hours at RT with gentle shaking. Following the incubation, the plate was washed with de-ionized water and three times with Tris Buffered Saline (TBS, pH 6.5) plus Tween. Bound SAA was detected by Anti-SAA Monoclonal Antibody (R&D System Cat. No. MAB30192), followed by secondary anti-IgG antibody conjugated to HRP (R&D System, Cat. No. HAF007). Antibody was diluted in TBS antibody buffer (pH6.5 supplemented with 1% BSA). Following each incubation with antibody, the plate was washed with de-ionized water and three times with TBS (pH6.5) wash buffer containing 0.1% Tween. Following to color development with TMB, as described in Example 43, the Optical Density of the samples was measured at 450 nm using an ELISA plate reader. Following color development, the % inhibition compared to control (no compound, DMSO control) for every compound was determined.
As described in Example 43, Heparin in the form of Heparin-BSA conjugate is used as a source of HS-GAG. For each compound IC-50 value in SAA—heparin-BSA binding assay is shown in μM (micromolar). […]
(In general: In an ELISA, binding on a coated surface is turned into a signal by an enzyme label.)

In assay [2] the target is Amyloid-beta(1-40) binding to heparin (HS-GAG) (Homo sapiens, UniProt P05067). Put plainly: Inhibition of Amyloid-beta(1-40) binding to immobilized heparin-BSA (ELISA). Also noted: species or system porcine. To be noted: for IC50: co-incubation on heparin-BSA plates; for inhibition at 30 µM: read-out: Abeta40/Heparin Activity (% inhibition class). The method, then: as §1
Sequence of Amyloid-beta(1-40) binding to heparin (HS-GAG) (P05067 672-711): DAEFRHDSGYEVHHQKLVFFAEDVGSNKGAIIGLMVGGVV
The assay was performed as described in Example 43, with the following modifications. Following to coating the plates with Heparin-BSA, plates were washed as described. The compounds were dissolved in DMSO at 10 mM final concentration and further diluted prior to assay. DMSO concentration in the screening well was up to 2%. Individual compounds were co-incubated with Beta-amyloid peptides on plates containing immobilized heparin. Beta-amyloid (1-42) was purchased from rPeptide (Cat. No. A1163) and used to prepare oligomers according to Stine et al., 2003 (J Biol Chem. 278(13):11612-22) as follows. 1,1,1,3,3,3-Hexafluoro-2-propanol- (HFIP; Sigma Cat. No. 105228)-treated Beta amyloid (1-42) was dissolved in dry DMSO (Sigma Cat. No. D2650) to 5 mM concentration. Dissolved Beta amyloid (1-42) was then diluted to 100 μM in ice-cold cell culture medium (phenol red-free Ham's F-12; Caisson Labs, Cat. No. HFL05), followed immediately by vortexing for 30 seconds, and incubating at 4 degrees Celsius for 24 h. Resulting Beta amyloid (1-42) oligomers were centrifuged at 12,000 rpm for 10 min at 4 degree Celsius to remove aggregates. Oligomers were then quickly frozen and kept in aliquots at −80 degrees Celsius. Beta-amyloid (1-40) from rPeptide (Cat No. A1153) was dissolved in DMSO, quickly frozen and kept in aliquots at −80 degrees Celsius. Beta-amyloid (1-42) oligomers or Beta-amyloid (1-40) diluted in PBS (pH 6.5, supplemented with BSA, 0.1%) were added to the ELISA plate (100 μl per well) and incubated for 2 hours at RT with gentle shaking. Following the incubation, the plate was washed with de-ionized water and three times with PBS (pH 6.5) plus Tween. […]

Where [3] appears, read: read-out: Serum Amyloid A/Heparin Activity (IC-50); SAA, heparin-BSA.
Where [4] appears, read: Abeta40/Heparin Activity (IC-50), Abeta(1-40).
[5] abbreviates: read-out: Serum Amyloid A/Heparin Activity (% inhibition class).
Where [6] appears, read: 30 μM compound; SAA, heparin-BSA; read-out: Serum Amyloid A/Heparin Activity (% inhibition class).

With `CC(=NNc1ccnc2cc(Cl)ccc12)c1ccc(-n2ccnc2)cc1` [Compound 36, 4-(2-(1-(4-(1H-imidazol-1-yl)phenyl)ethylidene)hydrazineyl)-7-chloroquinoline phosphate], the IC50 amounted to 22 µM in assay [1] (setting [3]) and 13.8 µM in assay [2] (setting [4]).
`Cc1cn(-c2ccc(Nc3cncc4cc(Cl)ccc34)cn2)c(C)n1` [Compound 37, 7-chloro-N-(6-(2,4-dimethyl-1H-imidazol-1-yl)pyridin-3-yl)isoquinolin-4-amine phosphoric acid salt]: the inhibition at 30 µM in assay [1] (setting [5]) was < 30%. For the same compound, in assay [2] (setting [4]), the IC50 came out at 45.6 µM.
Consider `Clc1ccc2c(N/N=C/c3ccc(-n4ccnc4)cc3)ccnc2c1` [Compound 38, 4-(2-(4-(1H-imidazol-1-yl)benzylidene)hydrazineyl)-7-chloroquinoline dihydrochloride], for which the IC50 in assay [1] (setting [3]) amounted to 14.9 µM; in assay [2] (setting [4]), 1.28 µM.
As to `CCN1CCN(c2ccc(Nc3ccnc4cc5ccccc5cc34)cc2)CC1` [Compound 39, N-(4-(4-ethylpiperazin-1-yl)phenyl)benzo[g]quinolin-4-amine], the inhibition at 30 µM in assay [1] (setting [6]) is > 30%. For the same compound, the IC50 in assay [2] (setting [4]) turned out to be 20.7 µM.
As for `Cc1ncn(-c2ncc(Nc3ncnc4cc(Cl)ccc34)cc2O)c1C` [Compound 40, 5-((7-chloroquinazolin-4-yl)amino)-2-(4,5-dimethyl-1H-imidazol-1-yl)pyridin-3-ol phosphoric acid salt], the inhibition at 30 µM was > 30% in assay [1] (setting [5]) and < 30% in assay [2].
Turning to `Clc1ccc2c(Nc3ccc(-n4ccnc4)nc3)ncnc2c1` [Compound 41, N-(6-(1H-imidazol-1-yl)pyridin-3-yl)-7-chloroquinazolin-4-amine], the IC50 in assay [1] (SAA, heparin-BSA; read-out: Serum Amyloid A/Heparin Activity (IC-50)) turned out to be 12.2 µM; in assay [2] (Abeta(1-40), read-out: Abeta40/Heparin Activity (IC-50)), 32.7 µM.
Consider `CCN(CC)Cc1cccc(Nc2ccnc3cc(Cl)ccc23)c1` [Compound 42, 7-chloro-N-(3-((diethylamino)methyl)phenyl)quinolin-4-amine], for which the inhibition at 30 µM in assay [1] (setting [6]) was < 30%. Moreover, in assay [2] (setting [4]), the IC50 worked out at 12.3 µM.
As for `C[n+]1ccn(-c2ccc(Nc3ncnc4cc(Cl)ccc34)cn2)c1` [Compound 43, 1-(5-((7-chloroquinazolin-4-yl)amino)pyridin-2-yl)-3-methyl-1H-imidazol-3-ium iodide phosphoric acid salt], the IC50 in assay [1] (setting [3]) was found to be 31.5 µM. Besides, in assay [2], the inhibition at 30 µM is < 30%.
For `Clc1ccc2c(Nc3ccc(-n4cncn4)nc3)ccnc2c1` [Compound 44, N-(6-(1H-1,2,4-triazol-1-yl)pyridin-3-yl)-7-chloroquinolin-4-amine], the IC50 in assay [1] (setting [3]) was 17.4 µM; in assay [2] (setting [4]), 19.3 µM.
With `CN(C)Cc1cc(Nc2ccnc3cc(Cl)ccc23)ccn1` [Compound 45, 7-chloro-N-(2-((dimethylamino)methyl)pyridin-4-yl)quinolin-4-amine], the IC50 in assay [1] (setting [3]) came to 63.5 µM. The inhibition at 30 µM in assay [2] (30 μM compound, Abeta(1-40), heparin-BSA) was < 30%.
